Literature values, collected in US7431914B2, “Contrast agent” (GE Healthcare AS, priority 2003, dated 2008).

Settings: both the drug and the chelate conjugate

Structure (SMILES): CCCCc1nc(Cl)c(CO)n1Cc1ccc(-c2ccccc2-c2nn[nH]n2)cc1 [Losartan]
- excrete through the liver: more than 80%
